Target: BKα/γ1 channels (Homo sapiens, UniProt Q12791)
Assay: Whole-cell recordings from HEK-293T cells overexpressing BKα/γ1 channels
Format: cell-based

Chain of BKα/γ1 channels (Q12791 whole entry): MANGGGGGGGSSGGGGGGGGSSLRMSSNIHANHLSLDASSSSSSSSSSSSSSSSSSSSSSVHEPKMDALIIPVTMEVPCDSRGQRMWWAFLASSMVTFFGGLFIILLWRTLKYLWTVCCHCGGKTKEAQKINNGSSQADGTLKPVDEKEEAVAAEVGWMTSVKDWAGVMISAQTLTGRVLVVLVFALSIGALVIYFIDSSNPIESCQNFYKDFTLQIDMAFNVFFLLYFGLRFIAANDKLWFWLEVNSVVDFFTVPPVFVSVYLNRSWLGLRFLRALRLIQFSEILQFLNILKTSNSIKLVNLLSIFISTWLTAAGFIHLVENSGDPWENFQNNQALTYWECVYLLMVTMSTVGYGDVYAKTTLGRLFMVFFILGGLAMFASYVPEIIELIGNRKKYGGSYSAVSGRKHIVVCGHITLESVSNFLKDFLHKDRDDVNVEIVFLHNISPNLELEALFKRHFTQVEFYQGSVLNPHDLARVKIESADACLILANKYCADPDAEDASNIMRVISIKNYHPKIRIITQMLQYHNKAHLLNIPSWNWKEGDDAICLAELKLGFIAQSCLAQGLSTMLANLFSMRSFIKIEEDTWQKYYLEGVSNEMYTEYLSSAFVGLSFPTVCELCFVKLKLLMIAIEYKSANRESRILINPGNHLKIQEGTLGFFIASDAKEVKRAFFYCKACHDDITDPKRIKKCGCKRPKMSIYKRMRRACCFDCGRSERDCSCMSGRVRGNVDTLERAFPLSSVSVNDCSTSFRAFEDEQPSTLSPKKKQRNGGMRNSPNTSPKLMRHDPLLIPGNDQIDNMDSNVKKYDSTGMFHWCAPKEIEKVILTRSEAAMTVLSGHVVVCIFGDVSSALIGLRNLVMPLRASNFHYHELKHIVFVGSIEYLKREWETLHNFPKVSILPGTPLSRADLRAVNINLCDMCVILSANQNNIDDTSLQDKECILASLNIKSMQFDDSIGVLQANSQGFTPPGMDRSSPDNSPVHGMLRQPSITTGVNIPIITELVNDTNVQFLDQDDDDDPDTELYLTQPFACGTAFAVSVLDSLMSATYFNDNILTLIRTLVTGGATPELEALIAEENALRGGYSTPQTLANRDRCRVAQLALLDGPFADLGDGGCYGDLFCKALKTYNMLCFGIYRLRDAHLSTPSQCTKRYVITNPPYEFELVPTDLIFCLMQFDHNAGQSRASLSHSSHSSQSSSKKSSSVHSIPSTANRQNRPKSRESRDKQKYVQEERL
Chain of BKα/γ1 channels (Q2I0M4 27-334 partner): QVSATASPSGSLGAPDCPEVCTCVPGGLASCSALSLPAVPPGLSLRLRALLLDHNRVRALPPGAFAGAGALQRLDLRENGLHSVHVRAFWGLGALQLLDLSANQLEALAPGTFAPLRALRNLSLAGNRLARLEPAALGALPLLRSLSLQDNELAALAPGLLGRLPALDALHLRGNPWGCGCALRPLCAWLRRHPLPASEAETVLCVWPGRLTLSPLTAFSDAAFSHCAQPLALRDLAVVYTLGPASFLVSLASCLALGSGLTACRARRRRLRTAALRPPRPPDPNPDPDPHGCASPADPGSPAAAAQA

CC[N+](CC)(CC)CC [TEA]
fractional current not blocked (1 mM extracellular TEA): 0.082 ± 0.0007 | time constant to reach equilibrium (bath application of 1 mM TEA): 8.4 ± 1 s | τ of exponential fit (c) (representative experiment Fig. 5 A, back to 0 LOP/0 TEA at t = 17 min): 13.2 s | τ of exponential fit (b) (representative experiment Fig. 5 A, switch to 1 mM TEA at t = 15 min): 7.3 s
